{"source": "paper PMC4045134", "about": "“Discovery of Triterpenoids as Reversible Inhibitors of α/β-hydrolase Domain Containing 12 (ABHD12)” (PLoS ONE, 2014)", "type_in_all_cases": "biochemical", "key": {"hABHD6": {"molecular_target": "T1, hABHD6 (Homo sapiens, UniProt Q9BV23)", "T1 construct": "expressed in transfected cells; host or cells: HEK293 (transient)", "T1 sequence (Q9BV23 1-337)": "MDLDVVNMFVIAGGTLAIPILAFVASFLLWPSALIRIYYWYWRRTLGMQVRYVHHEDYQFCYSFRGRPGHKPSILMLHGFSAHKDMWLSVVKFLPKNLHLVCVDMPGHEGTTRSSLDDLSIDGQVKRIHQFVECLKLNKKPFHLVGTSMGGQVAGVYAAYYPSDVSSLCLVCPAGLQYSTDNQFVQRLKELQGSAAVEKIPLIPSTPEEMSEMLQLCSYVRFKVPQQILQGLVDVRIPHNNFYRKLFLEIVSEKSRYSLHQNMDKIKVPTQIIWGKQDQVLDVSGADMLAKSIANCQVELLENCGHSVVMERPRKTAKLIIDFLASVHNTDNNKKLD", "experiment": "Fluorescent glycerol assay in hABHD6-HEK293 lysates", "conditions": "10 µM; NI = no inhibition at 10 µM; read-out: hABHD6 Remaining activity % control ± s.e.m (n=3)", "procedure": "(§1) Glycerol liberated from 1-AG hydrolysis was determined with a sensitive fluorescent assay using lysates of HEK293 cells with transient overexpression of hABHD12, hABHD6 or hMAGL, essentially as previously described. […] Fluorescence (λex 530; λem 590 nm) was monitored using a Tecan Infinite M200 plate reader (Tecan Group Ltd., Männedorf, Switzerland). Inhibitory activities of selected compounds towards FAAH were determined using membranes of hFAAH overexpressing COS-7 cells, essentially as previously described. The final incubation volume (100 µL) contained 1 µg of protein and the substrate concentration was 20 µM (10 nM of ^3H-anandamide having specific activity of 60 Ci/mmol and concentration of 1 mCi/mL)."}, "hMAGL": {"molecular_target": "T2, hMAGL (Homo sapiens, UniProt Q99685)", "T2 construct": "expressed in transfected cells; host or cells: HEK293 (transient)", "T2 sequence (Q99685 1-303)": "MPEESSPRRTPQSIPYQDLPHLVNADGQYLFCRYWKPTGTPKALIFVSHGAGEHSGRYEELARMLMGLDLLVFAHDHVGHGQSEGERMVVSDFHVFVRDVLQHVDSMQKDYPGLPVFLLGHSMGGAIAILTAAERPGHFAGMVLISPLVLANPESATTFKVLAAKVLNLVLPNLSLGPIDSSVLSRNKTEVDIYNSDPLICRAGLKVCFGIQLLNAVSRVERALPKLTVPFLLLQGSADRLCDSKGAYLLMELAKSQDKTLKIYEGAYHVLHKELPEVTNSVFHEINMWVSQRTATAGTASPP", "experiment": "Fluorescent glycerol assay in hMAGL-HEK293 lysates", "conditions": "10 µM; read-out: hMAGL Remaining activity % control ± s.e.m (n=3)"}, "hFAAH": {"molecular_target": "T3, hFAAH (Homo sapiens, UniProt O00519)", "T3 construct": "expressed in transfected cells; host or cells: COS-7", "T3 sequence (O00519 1-579)": "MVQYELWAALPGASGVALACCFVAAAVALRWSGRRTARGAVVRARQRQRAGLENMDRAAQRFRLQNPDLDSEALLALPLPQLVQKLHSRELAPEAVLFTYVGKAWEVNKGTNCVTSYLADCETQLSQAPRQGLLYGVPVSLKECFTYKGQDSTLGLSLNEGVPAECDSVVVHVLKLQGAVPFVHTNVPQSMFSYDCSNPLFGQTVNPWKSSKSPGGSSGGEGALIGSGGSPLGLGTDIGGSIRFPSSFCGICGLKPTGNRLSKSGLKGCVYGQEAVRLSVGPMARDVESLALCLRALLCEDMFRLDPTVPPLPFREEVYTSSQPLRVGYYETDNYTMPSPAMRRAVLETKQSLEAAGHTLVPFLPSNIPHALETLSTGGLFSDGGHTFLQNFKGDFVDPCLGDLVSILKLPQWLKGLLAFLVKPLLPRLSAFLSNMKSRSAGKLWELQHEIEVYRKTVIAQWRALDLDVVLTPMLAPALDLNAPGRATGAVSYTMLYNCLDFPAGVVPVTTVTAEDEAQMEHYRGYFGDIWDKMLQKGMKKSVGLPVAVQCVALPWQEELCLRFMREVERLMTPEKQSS", "experiment": "FAAH activity, membranes of hFAAH overexpressing COS-7 cells, 3H-anandamide", "conditions": "read-out: hFAAH Remaining activity % control (mean (range)), n=2", "procedure": "as §1"}, "CB1R": {"molecular_target": "T4, CB1R (Rattus norvegicus, UniProt P20272)", "T4 construct": "membranes prepared from brain tissue of 4-week-old male rodents were used; from tissue; host or cells: rat cerebellar membranes", "T4 sequence (P20272 whole entry)": "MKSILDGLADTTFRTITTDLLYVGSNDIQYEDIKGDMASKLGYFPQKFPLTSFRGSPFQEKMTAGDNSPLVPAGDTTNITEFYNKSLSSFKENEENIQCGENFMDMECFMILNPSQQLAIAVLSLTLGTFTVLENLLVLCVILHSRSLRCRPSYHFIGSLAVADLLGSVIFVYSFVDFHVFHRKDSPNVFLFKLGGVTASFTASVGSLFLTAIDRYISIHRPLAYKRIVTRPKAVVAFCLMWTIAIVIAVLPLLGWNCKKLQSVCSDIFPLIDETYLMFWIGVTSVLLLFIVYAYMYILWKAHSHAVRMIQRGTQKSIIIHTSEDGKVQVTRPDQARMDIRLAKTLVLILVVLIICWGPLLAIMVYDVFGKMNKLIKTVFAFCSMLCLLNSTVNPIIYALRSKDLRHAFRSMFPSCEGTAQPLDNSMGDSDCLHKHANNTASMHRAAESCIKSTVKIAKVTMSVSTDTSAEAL", "experiment": "[35S]GTPγS binding, CB1R agonist activity, rat cerebellar membranes", "conditions": "10 µM", "procedure": "The CB1 and CB2 receptor activity of the selected compounds (10 µM) were measured using the GTPγS binding assay according to the previously described methods, [33].\n(§2) For ABPP experiments (Figure 6C) and cannabinoid receptor activity assays (Table S2), membranes prepared from brain tissue of 4-week-old male rodents were used. The animals were obtained from the National Laboratory Animal Centre, University of Eastern Finland. Approval for the harvesting of animal tissue was obtained from the local welfare officer of the University of Eastern Finland."}, "ABHD12": {"molecular_target": "T5, ABHD12 (Mus musculus, UniProt Q99LR1)", "T5 construct": "the sole serine hydrolase targeted by the triterpenoids in native brain membrane proteome; from tissue; host or cells: mouse whole-brain membranes", "T5 sequence (Q99LR1 1-398)": "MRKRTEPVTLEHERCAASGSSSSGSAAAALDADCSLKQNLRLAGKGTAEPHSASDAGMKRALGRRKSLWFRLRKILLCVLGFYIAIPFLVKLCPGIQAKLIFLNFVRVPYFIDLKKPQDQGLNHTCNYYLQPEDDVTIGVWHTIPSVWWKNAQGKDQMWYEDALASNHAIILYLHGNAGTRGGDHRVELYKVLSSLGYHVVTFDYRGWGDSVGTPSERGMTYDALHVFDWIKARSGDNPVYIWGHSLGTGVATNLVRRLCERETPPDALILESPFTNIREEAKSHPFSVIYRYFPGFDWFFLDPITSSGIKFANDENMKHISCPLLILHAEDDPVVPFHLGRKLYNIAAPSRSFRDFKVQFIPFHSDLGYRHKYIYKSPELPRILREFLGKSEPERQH", "experiment": "Competitive ABPP with TAMRA-FP in mouse brain membrane proteome", "conditions": "mouse brain membranes, 1 h inhibitor, 1 h probe", "procedure": "(§3) Competitive ABPP using HEK293 cell lysates and mouse brain membranes was conducted to visualize effects of selected triterpenoids on the binding of the active site serine-targeting fluorescent fluorophosphonate probe TAMRA-FP following outlines of previous protocols, [31]. Briefly, lysates (25 µg) of HEK293 cells with or without (Mock) hABHD12 overexpression or mouse wholebrain membranes (100 µg) were treated for 1 h with DMSO or the inhibitor, after which TAMRA-FP labelling was conducted for 5 min (lysates) or 1 hour (membranes) at RT (final probe concentration 2 µM). The reaction was quenched by addition of gel loading buffer (followed by boiling for 5 min in the case of lysates), after which 10 µg protein (10 µl) was loaded per lane and the proteins were resolved in 10% SDS-PAGE together with standards. TAMRA-FP labeling was visualized (λex 552; λem 575 nm) by a fluorescent reader (FLA-3000 laser fluorescence scanner, Fujifilm, Tokyo, Japan). The intensity of bands was quantified using ImageJ, a freely available image analysis software (http://rsbweb.nih.gov/ij/).\nas §2"}, "[1]": {"test_system": "metabolic serine hydrolases", "experiment": "Competitive ABPP, other serine hydrolases of mouse brain membrane proteome", "procedure": "as §3\nFor ABPP experiments (Figure 6C) and cannabinoid receptor activity assays (Table S2), membranes prepared from brain tissue of 4-week-old male rodents were used. The animals were obtained from the National Laboratory Animal Centre, University of Eastern Finland. […]"}}, "note": "Entries after “also recorded” stand apart in the source; their conditions may differ."}
{"smiles": "CC1(C)CC[C@]2(C(=O)O)CC[C@]3(C)C(=CC[C@@H]4[C@@]5(C)C[C@@H](O)[C@H](O)C(C)(C)[C@@H]5CC[C@]43C)[C@@H]2C1", "note": "[Compound 8, Maslinic acid, reference compound]", "values": [{"measurement": "remaining activity at 10 µM", "setting": "hABHD6", "result": "> 100", "unit": "%"}, {"measurement": "remaining activity at 10 µM", "setting": "hMAGL", "result": "95.6 ± 0.8", "unit": "%"}, {"measurement": "remaining activity at 10 µM", "setting": "hFAAH", "result": 83, "unit": "%"}, {"measurement": "CB1R agonist activity [35S]GTPγS binding % Basal (Mean (range), n=2)", "setting": "CB1R", "result": "93 (88-97) % Basal"}, {"measurement": "TAMRA-FP probe labeling of ABHD12", "setting": "ABHD12", "result": "selectively inhibited probe labeling of ABHD12; also recorded: dose-dependently inhibit TAMRA-FP labeling of ABHD12 already at 20 µM"}, {"measurement": "additional targets among the metabolic serine hydrolases", "setting": "[1]", "result": "no additional targets are evident"}]}
